Experimental data reported in US12172988B2, “Anticancer and antifungal splice modulators” (priority 2021, dated 2024).
Where two headings read alike, the source gives them in different places.

How the values were obtained:
Type in all cases: cell-based, human
[1] = test system: HCT116 colorectal carcinoma cells; experiment: MTS cell viability / cell growth inhibition assay; conditions: for GI50: Homo sapiens, HCT-116, 72 h
Method: With milligram quantities of 1a-1i at hand, we began our studies to evaluate the relative efficacy of each analogue using cell growth inhibition studies in HCT116 colorectal carcinoma cells. As reported in FIG. 3, GI50 values were collected for each analog after a 72 h treatment using the MTS cell viability assay (Table 12). Under these conditions, the natural FD-895 (1), 3S-FD-895 (1a) 17S-FD-895 (1d), 17-methoxy-FD-895 (1e) provided activities of <10 nM.
HCT-116 cells was cultured in McCoy's 5a (Life Technologies) supplemented with 10% fetal bovine serum (FBS), 2 mM L-glutamine, and 100 U mL^−1 of penicillin and 100 μg mL^−1 of streptomycin at 37° C. in an atmosphere of 5% CO2. Compounds were dissolved in DMSO (MilliporeSigma). Cells were treated with 1-1j in media with ≥0.5% DMSO for 4-72 h.
Studies were conducted in […] cell culture plates. HCT-116 plated at 5×10^3 cells/well were cultured for 24 h and then treated with analogs 1-1j for 4-72 h, then washed twice with 100 μL PBS. PBS (100 μL) was added to each well, followed by 20 μL of CellTiter Aqueous One Solution (Promega). After 2 h at 37° C., absorbance readings were taken at 490 nm (test wavelength) and 690 nm (reference wavelength). GI50 values were calculated in Prism (GraphPad) using greater 3 replicates.
(§1) Cells were treated with 1 or 1a-1j in media (McCoy's 5a (Life Technologies) supplemented with 10% FBS, 2 mM L-glutamine, and 100 U mL^−1 of penicillin and 100 μg mL^−1 of streptomycin 0.5% DMSO) for 4 h or 24 h. Untreated cells were considered were used as negative control. Total RNA was isolated using mirVana miRNA isolation kit (Life Technologies). A 1 μg sample of RNA was subjected to DNAseI from a TURBO DNA free kit (Life Technologies). The cDNA was prepared by using SuperScript III reverse transcriptase kit (Life Technologies). The amount of unspliced RNA for different genes was determined using Power SYBR Green PCR master mix (Applied Biosystems) by qPCR using specific primers for each gene. qPCR using 2.5 μM of each primer was performed on 5 ng of the obtained cDNA. qPCR conditions were as follows: 95° C. for 10 min for one cycle, then 95° C. for 10 min for one cycle, then 95° C. for 30 s, 55° C. for 60 s, 72° C. for 60 s, for 40 cycles using the MXPro. Quantification cycle (Cq) values were identified for each sample, and then RNA levels were calculated using 2-ΔΔCT method. GAPDH was used as a control for normalization. At least three replicates were conducted for each compound. Namely, all genes explored in this study were evaluated from the same cell cultures. Here, individual cultures were used for each compound explored and at least three replicates were used for each compound. While experimental variation occurred between the different compound treatments, the levels of the different intron retention, exon skipping or RNA expression were collected from the same cellular material. Statistics were calculated using a standard one-way ANOVA; p values were represented so that * signifies p<0.0001. HCT116 were treated with analogs 1-1j ranging from 0.1-5000 nM for 72 hours, then cell viability was measured using the MTS assay. GI50 values and confidence intervals were calculated using GraphPad (Table 12).

[2] = test system: DNAJB1; experiment: qPCR splicing analysis, DNAJB1 intron retention; conditions: HCT116, 4 h, 20 times GI50, qPCR relative to GAPDH
Method: (§2) HCT116 tumor cells were treated with each analogue at 20 times the G150 value (Table 12) for 4 hours and then cellular RNA was isolated and purified for qPCR. Primers were designed to evaluate intron retention or exon skipping, direct responses to splice modulator treatment. Genes evaluated included those involved in splicing regulation (SF3A1, SF3A3, SF3B1, SF3B2), apoptosis (MCL-1L), protein folding (DNAJB1), and cell cycle regulation (AURKA, PLK-1) relative to the unspliced control GAPDH. For alternative splicing regulator (SF2), primers were designed to evaluate gene expression, which changes in response splice modulator treatment for SF2 relative to the unspliced control GAPDH. (−) denotes untreated cells.
as §2, with “analogues” for “each analogue”, “100 nM (light grey), 250 nM (grey), or 500 nM (black)” for “20 times the G150 value (Table 12)”, “24 h” for “4 hours”, “(MCL-1L), and” for “(MCL-1L),”, “(DNAJB1),” for “(DNAJB1), and cell cycle regulation (AURKA, PLK-1)”, “(—)” for “(−)”
(§3) Next, we turned our efforts to explore the ability of these analogues to modulate splicing. […] We treated cells for 4 h so that we could evaluate early changes in splicing activity, and then cellular RNA was isolated and purified for analyses by qPCR (FIG. 14). Most importantly, none of the concentrations tested led to significant changes in cell viability, ensuring that changes in gene expression were not due to cell death.
(§4) For these studies, we evaluated the expression of genes involved in splicing regulation (SF3A1, SF3A3, SF3B1, SF3B2), apoptosis (MCL-1L), protein folding (DNAJB1), and cell cycle regulation (AURKA, PLK-1) relative to the unspliced control GAPDH. Primers were designed to evaluate intron retention or exon skipping, direct responses to splice modulator treatment. The master splicing regulator alternative splicing factor (SF2) was also evaluated, with the primers for this gene designed to evaluate overall gene expression, which changes in response to splice modulator treatment.
(§5) From this 4 h study (FIG. 14), a small set of analogs (1, 1b, 1g, 1d, 1e, 1i and 1j) were selected to evaluate if effects on splicing when presented for a longer 24 h period. […] Using identical procedures as that used for 4 h, HCT116 cells were treated with three concentrations (100 nM, 250 nM and 500 nM) of each analog for 24 h. Multiple concentrations were used as a means to check further validate the use of the GI50 concentration in our prior study (FIG. 14). As before, none of the concentrations tested led to significant changes in cell viability over the 24-hour time window, ensuring that changes in gene expression were not due to cell death.
(§6) Cells were treated with 1 or 1a-1j in media (McCoy's 5a (Life Technologies) supplemented with 10% FBS, 2 mM L-glutamine, and 100 U mL^−1 of penicillin and 100 μg mL^−1 of streptomycin 0.5% DMSO) for 4 h or 24 h. Untreated cells were considered were used as negative control. Total RNA was isolated using mirVana miRNA isolation kit (Life Technologies). […]

[3] = test system: HCT116 tumor cells; experiment: qPCR structure-splicing profile over the gene panel; conditions: HCT116, 24 h, 100, 250, 500 nM, compared to 1
Method: as §2, with “analogues” for “each analogue”, “100 nM (light grey), 250 nM (grey), or 500 nM (black)” for “20 times the G150 value (Table 12)”, “24 h” for “4 hours”, “(MCL-1L), and” for “(MCL-1L),”, “(DNAJB1),” for “(DNAJB1), and cell cycle regulation (AURKA, PLK-1)”, “(—)” for “(−)”
as §4, §5, §1

[4] = test system: SF3A1; experiment: qPCR splicing analysis, SF3A1 intron retention; conditions: HCT116, 4 h, 20 times GI50, qPCR relative to GAPDH
Method: as §2
as §2, with “analogues” for “each analogue”, “100 nM (light grey), 250 nM (grey), or 500 nM (black)” for “20 times the G150 value (Table 12)”, “24 h” for “4 hours”, “(MCL-1L), and” for “(MCL-1L),”, “(DNAJB1),” for “(DNAJB1), and cell cycle regulation (AURKA, PLK-1)”, “(—)” for “(−)”
as §3, §4, §5
as §6, with “Technologies). A 1 μg sample of RNA was subjected to DNAseI from a TURBO DNA free kit (Life Technologies). The cDNA was prepared by using SuperScript III reverse transcriptase kit (Life Technologies).” for “Technologies).”

[5] = HCT116, 72 hours, MTS assay, 0.1-5000 nM, read-out: GI50 value

Structure (SMILES)	GI50 ([1]; read-out: GI50 value)	GI50 ([1]; read-out: GI50 value (text))	GI50 [1, 5]	SF3A1 intron 6 retention (level of intron retention) [4]	other results
CC[C@H](OC)[C@@H](C)[C@H]1O[C@@H]1[C@H](O)[C@H](C)/C=C/C=C(\C)[C@@H]1OC(=O)C[C@H](O)CC[C@@](C)(O)[C@@H](OC(C)=O)/C=C/[C@H]1C [Analog 1c, 10R,11R-FD-895]	36600 nM	37000 nM			
CC[C@H](OC)[C@@H](C)[C@H]1O[C@@H]1[C@H](OC)[C@H](C)/C=C/C=C(\C)[C@H]1OC(=O)C[C@H](O)CC[C@@](C)(O)[C@@H](OC(C)=O)/C=C/[C@@H]1C [Analog 1e, 17-methoxy-FD-895]			2.21 nM	more effective than 1	cell growth inhibitory activity compared to FD-895 ([1]; HCT-116 cells): comparable cell growth inhibitor activity as 1; DNAJB1 intron 2 retention (level of intron retention) [2]: highest level of intron retention; splicing activity over the genes tested [3]: comparable or slightly reduced splice modulatory activity as 1
CC[C@H](OC)[C@@H](C)[C@H]1O[C@@H]1[C@@H](OC)[C@H](C)/C=C/C=C(\C)[C@H]1OC(=O)C[C@H](O)CC[C@@](C)(O)[C@@H](OC(C)=O)/C=C/[C@@H]1C [Analog 1f, 17-methoxy-17S-FD-895]			37.6 nM	more effective than 1	fold loss in activity ([1]; HCT116 GI50, double modification (methylation and inversion at C17)): 10 fold; GI50 ([1]; HCT116, 72 h treatment, MTS cell viability assay, read-out: GI50 value): 38 nM
CC[C@H](OC)[C@@H](C)[C@H]1O[C@@H]1[C@@H](O)[C@H](C)/C=C/C=C(\C)[C@H]1OC(=O)C[C@H](O)CC[C@@](C)(O)[C@H](OC(C)=O)/C=C/[C@@H]1C [Analog 1h, 7R,17S-FD-895]	806 nM	806 nM			fold less effective compared to 1b ([1]; HCT116 GI50, compared to 1b): 1.8 fold; fold less effective compared to 1d ([1]; HCT116 GI50, compared to 1d): 380 fold
